Experiments:
[1] = tested on: LX-2 cells; assay: Cell cytotoxicity assay (MTS); assay type: cell-based, human; conditions: 0-300 nM, 24, 48 or 72 hours
Protocol: (§1) At the beginning of each experiment, stellate cells (LX-2 cells or phHSCs) were serum-starved overnight in DMEM supplied with 0.1% BSA (without antibiotic) to synchronize metabolic activities of the cells. The cells were then exposed to different working concentration of either AZD3355 or sorafenib for 24, 48 and 72 hours.
(§2) 5,000 LX-2 cells or 10,000 phHSCs were plated per well in 96 well plates. Cells were serum starved overnight in DMEM supplemented with 0.1% BSA (without antibiotic). Cells were then incubated with different concentrations of AZD3355 for indicated durations and MTS assays were accomplished using CellTiter 96 AQueous One Solution Cell Proliferation Assay kit (Promega, WI) according to manufacturer's protocol.

[2] = tested on: phHSCs; assay: Cell cytotoxicity assay (MTS); assay type: cell-based, human; conditions: 30 nM or 100 nM, 48 or 72 hours
Protocol: as §1, §2

[3] = tested on: human liver slices; assay: Liver slice assay, histopathology and H&E staining; assay type: cell-based; conditions: 24 hours
Protocol: Ten human liver pieces were collected from the Mount Sinai biorepository. The samples were prepared by coring the liver with 8 mm cylindrical coring tools. The liver cores were kept in ice cold WE medium, with GlutaMAX supplemental. A liver core was then mounted on a specimen plate with cyanoacrylate adhesive. Liver slices (approximately 200 μm in thickness) were placed in ice cold Krebs-Henesleit buffer in the presence of carbogen gas. There was then a 1 hour pre-incubation in WE GlutaMAX media with gentamicin in 95% O2 and 5% CO2 at 37° C. in a humidified rocker chamber to restore ATP levels.
The liver slices were then cultured in WE GlutaMAX media with gentamicin in 95% O2 and 5% CO2 at 37° C. in a humidified rocker chamber with slow 70 rpm rocking in the presence of AZD3355 in the amounts of 250 nM, 500 nM, 1000 nM, or 2000 nM, or sorafenib at 1000 nM., or control vehicle (saline water).
After 24 hours, the tissue slices were harvested for either RNA isolation and quantitative PCR for measurements of Col1α1, TNFα, and IL-6 expression, or for histopathology and hematoxylin and eosin (H&E) staining as described in Example 3.

[4] = NASH mouse model, body weight; assay type: in vivo; conditions: male and female NASH model mice, 12-week treatment
Protocol: The experimental protocol was reviewed and approved by the Institutional Animal Care and Use Committee (IACUC) at Icahn School of Medicine at Mount Sinai, NY. Male and Female C57BL/6J mice (age: 6 weeks; weight: 20-25 g) were purchased from Jackson Laboratories (Farmington, CT). Animals were housed in a 12 hours light—12 hours dark cycle in the animal facility at Icahn School of Medicine at Mount Sinai, NY and handled following guidelines for the care and use of laboratory animals. Male and female mice were maintained in separate cages.
Carbon tetrachloride (CC14) was purchased from Sigma-Aldrich, MO. CC14 was freshly dissolved in corn oil at final concentration of 5% before injection. […]
Western diet containing 21.2% fat (42% Kcal), 41% sucrose and 1.25% cholesterol by weight was purchased from Envigo, WI (Teklad Custom diet Cat #TD.120528). […] During change of food and water we have been measured the amount of food and water intake and the data was collected.
Four separate groups of mice were given either 0.5% methylcellulose (as Vehicle) or AZD3355 at 10 mg/kg (low dose) body weight of mice or 30 mg/kg (high dose) body weight of mice by twice daily (BID (5 days/week)) and OCA at 30 mg/kg body weight of mice by daily (QD (5 days/week)) through oral route for up to next 12 weeks (week 13 to week 24). […] All animals were closely monitored the health conditions and behavior.

[5] = tested on: NASH model mice; assay: NASH mouse model, histopathological scoring of liver sections; assay type: in vivo; conditions: for Hepatocyte ballooning ± SE: score 0-2; for Portal inflammation ± SE / Lobular Inflammation ± SE / Steatosis ± SE: score 0-3; for Fibrosis Stage ± SE: score 0-4; for NAFLD activity score (NAS) ± SE: score 0-8
Protocol: Four separate groups of mice were given either 0.5% methylcellulose (as Vehicle) or AZD3355 at 10 mg/kg (low dose) body weight of mice or 30 mg/kg (high dose) body weight of mice by twice daily (BID (5 days/week)) and OCA at 30 mg/kg body weight of mice by daily (QD (5 days/week)) through oral route for up to next 12 weeks (week 13 to week 24). Them last group of mice were not given any drug or vehicle treatment, as No Tx—24 weeks and maintained in parallel with treatment/vehicle groups. Usually all doses were given at early morning and the second daily dose of AZD3355 at evening (10 hours of intervals). All animals were closely monitored the health conditions and behavior.
A piece of tissue from large liver lobe was fixed in 10% Formalin Buffered (Astral Diagnostics Incorporated NJ) embedded in paraffin and microtome sectioning were performed. Slides containing tissue sections were baked at 60° C. for 1 hour and re-hydrated through xylene followed by graded ethanol (100%, 95%, 85% and 70%) into distilled water and processed in either Picrosirius red/Fast green or hematoxylin and eosin staining.
A total of 2 sections/animal were stained with H&E staining performed by standard protocol.
Steatosis, hepatocyte ballooning, lobular inflammation, portal inflammation and fibrosis of picroserious red/fast green and H&E stained liver section were scored according to the NASH Clinical Research Network (NASH CRN) scoring system in a blinded fashion by an expert hepato-pathologist in Icahn School of Medicine at Mount Sinai. NAFLD activity score (NAS) was calculated according to Brunt criteria and range from 0-8. NAS was calculated by the sum of scores of steatosis (0-3), hepatocyte ballooning (0-2) and lobular inflammation (0-3). NAS score of >5.0 strongly correlated with “definite-NASH” whereas <3 correlated with “not-NASH”. Fibrosis (0-4) or portal inflammation (0-3) scores were assessed separately and not included in NAS.

Structure (SMILES): NC[C@@H](F)C[PH](=O)O [AZD3355, [(2R)-3-amino-2-fluoropropyl] phosphinic acid]
- cell cytotoxicity (MTS) [1]: no significant cell cytotoxicity observed except for in LX-2 cells at 300 nM
- cell cytotoxicity (MTS) [2]: no significant cell cytotoxicity
- liver cells viability (H&E) [3]: did not change
- body weight during treatment [4]: stable
- Hepatocyte ballooning ± SE ([5]; ♀ Mice, 10 mg/kg, vehicle 1.2 ± 0.1): 1.3 ± 0.1
- Portal inflammation ± SE ([5]; ♀ Mice, 10 mg/kg, vehicle 1.6 ± 0.1): 1.6 ± 0.1
- Lobular Inflammation ± SE ([5]; ♀ Mice, 10 mg/kg, vehicle 2.3 ± 0.1): 2.5 ± 0.1
- Steatosis ± SE ([5]; ♀ Mice, 10 mg/kg, vehicle 2.5 ± 0.1): 2.6 ± 0.1
- Fibrosis Stage ± SE ([5]; ♀ Mice, 10 mg/kg, vehicle 3.0 ± 0.1): 3.1 ± 0.1
- NAFLD activity score (NAS) ± SE ([5]; ♀ Mice, 10 mg/kg, vehicle 6.1 ± 0.4): 6.4 ± 0.4
- Steatohepatitis Grade ± SE ([5]; ♀ Mice, 10 mg/kg, vehicle 1.8 ± 0.2): 2.1 ± 0.2
- Hepatocyte ballooning ± SE ([5]; ♀ Mice, 30 mg/kg twice daily, vehicle 1.2 ± 0.1): 1.3 ± 0.1
- Portal inflammation ± SE ([5]; ♀ Mice, 30 mg/kg twice daily, vehicle 1.6 ± 0.1): 2.0 ± 0.0
- Lobular Inflammation ± SE ([5]; ♀ Mice, 30 mg/kg twice daily, vehicle 2.3 ± 0.1): 2.7 ± 0.1
- Steatosis ± SE ([5]; ♀ Mice, 30 mg/kg twice daily, vehicle 2.5 ± 0.1): 2.3 ± 0.1
- Fibrosis Stage ± SE ([5]; ♀ Mice, 30 mg/kg twice daily, vehicle 3.0 ± 0.1): 3.1 ± 0.1
- NAFLD activity score (NAS) ± SE ([5]; ♀ Mice, 30 mg/kg twice daily, vehicle 6.1 ± 0.4): 6.4 ± 0.3
- Steatohepatitis Grade ± SE ([5]; ♀ Mice, 30 mg/kg twice daily, vehicle 1.8 ± 0.2): 2.2 ± 0.2
- Hepatocyte ballooning ± SE ([5]; ♂ Mice, 10 mg/kg, vehicle 1.7 ± 0.1): 1.7 ± 0.1
- Portal inflammation ± SE ([5]; ♂ Mice, 10 mg/kg, vehicle 2.0 ± 0.1): 1.9 ± 0.0
- Steatosis ± SE ([5]; ♂ Mice, 10 mg/kg, vehicle 2.7 ± 0.1): 2.7 ± 0.1
- Lobular Inflammation ± SE ([5]; ♂ Mice, 10 mg/kg, vehicle 2.8 ± 0.1): 2.8 ± 0.1
- Fibrosis Stage ± SE ([5]; ♂ Mice, 10 mg/kg, vehicle 3.3 ± 0.1): 3.2 ± 0.1
- NAFLD activity score (NAS) ± SE ([5]; ♂ Mice, 10 mg/kg, vehicle 7.2 ± 0.3): 7.2 ± 0.3
- Steatohepatitis Grade ± SE ([5]; ♂ Mice, 10 mg/kg, vehicle 2.6 ± 0.2): 2.7 ± 0.1
- Hepatocyte ballooning ± SE ([5]; ♂ Mice, 30 mg/kg twice daily, vehicle 1.7 ± 0.1): 1.8 ± 0.1
- Portal inflammation ± SE ([5]; ♂ Mice, 30 mg/kg twice daily, vehicle 2.0 ± 0.1): 2.0 ± 0.2
- Steatosis ± SE ([5]; ♂ Mice, 30 mg/kg twice daily, vehicle 2.7 ± 0.1): 2.4 ± 0.1
- Lobular Inflammation ± SE ([5]; ♂ Mice, 30 mg/kg twice daily, vehicle 2.8 ± 0.1): 2.6 ± 0.2
- Fibrosis Stage ± SE ([5]; ♂ Mice, 30 mg/kg twice daily, vehicle 3.3 ± 0.1): 3.0 ± 0.0
- NAFLD activity score (NAS) ± SE ([5]; ♂ Mice, 30 mg/kg twice daily, vehicle 7.2 ± 0.3): 6.8 ± 0.5
- Steatohepatitis Grade ± SE ([5]; ♂ Mice, 30 mg/kg twice daily, vehicle 2.6 ± 0.2): 2.5 ± 0.2

— patent publication US20250082654A1, “AZD3355 (LESOGABERAN) FOR TREATMENT AND PREVENTION OF NONALCOHOLIC STEATOHEPATITIS (NASH), LIVER FIBROSIS, AND OTHER LIVER CONDITIONS” (Icahn School of Medicine at Mount Sinai, priority 2018, published 2025)
